The values below are quoted from earlier work in US10758465B2, “Synephrine compositions” (Follea International, priority 2017, dated 2020).

Structures are written as SMILES.

The test system of data set [1] is alpha1-adrenoceptors. The following applies: postjunctional alpha1-adrenoceptors.
The test system of data set [2] is alpha2-adrenoceptors. The following applies: postjunctional alpha2-adrenoceptors.

Consider `CNC[C@@H](O)c1ccc(O)cc1` [S-(+)-synephrine], for which the “potency relative to the (−) form” value in data set [1] and in data set [2] was “one to two orders of magnitude less” throughout.
